Entries after “also recorded” stand apart in the source; their conditions may differ. Like-named read-outs stand apart in the source and are kept apart here.
Key:
[1] = levetiracetam blood plasma levels in aMCI patients; format: in vivo; details: human
Excerpt: Visit 1: At the end of the first drug/placebo period 2 weeks after the Baseline Visit, the medical, neurological and psychiatric evaluations and cognitive testing are repeated. The subject is also clinically evaluated for suicidal ideation. Blood is drawn again to repeat the standard tests and to determine whether there are any changes related to drug treatment; the subject's blood levetiracetam level is also obtained. All medication that is dispensed at the Baseline Visit (drug or placebo) is collected and subject compliance with the medication regimen is assessed. The first fMRI session (with cognitive tests) is conducted on the same day, either immediately before or immediately after the clinical assessment. Subjects discontinue first period treatment at this visit.
Visit 2: At approximately 2 weeks after the Washout Visit (i.e., 2 weeks after starting the second treatment period), the medical, neurological and psychiatric evaluations and the cognitive testing are repeated. The subject is clinically evaluated for suicidal ideation. Blood is drawn again to repeat the standard tests and to determine whether there are any changes related to drug treatment; the subject's blood levetiracetam level is also obtained. All medication that is dispensed at the Washout Visit is collected and subject compliance with the medication regimen is assessed. The second fMRI session (with cognitive tests) is repeated on the same day, either immediately before or immediately after the clinical assessment.
Visit 2: At approximately 2 weeks after the Washout Visit (i.e., 2 weeks after starting the second treatment period), the medical, neurological and psychiatric evaluations and the cognitive testing are repeated. The subject is clinically evaluated for suicidal ideation. […] All medication being dispensed at the Washout Visit is collected and subject compliance with the medication regimen is assessed. […]
Human – in the human studies described in Examples 3 and 4, a subject's levetiracetam blood plasma level is assessed at each visit. […]

[2] = levetiracetam blood plasma levels in aged-impaired rats; format: in vivo; details: rat
Description: Rats: Blood is drawn from aged-impaired rats by cardiac puncture during perfusion after a 28-day levetiracetam treatment period and is sent for analysis of levetiracetam plasma levels by MedTox Laboratories in St. Paul, Minn.
The levetiracetam blood levels in the aged-impaired rats treated with daily levetiracetam doses of 10 mg/kg and 60 mg/kg can be use to estimate the levetiracetam blood level of its daily dose of 20 mg/kg. This extrapolation gives an estimated levetiracetam blood level of 7.6 mcg/ml for the 20 mg/kg daily dose.

[3] = system: aMCI subjects; experiment: explicit 3-alternative forced choice task (lure-based memory performance); format: in vivo, human
[4] = system: entorhinal cortex (EC) of aMCI subjects; experiment: fMRI activity in entorhinal cortex during lure stimuli correctly identified as similar; format: in vivo, human; details: 125 mg twice a day for two weeks vs placebo
Description: A within-subjects trial of 8 weeks duration, involving 17 amnestic MCI (aMCI) subjects and 17 age-matched controls with a low dose treatment of levetiracetam is conducted. During the course of the study, each aMCI subject receives both drug and placebo treatments separately in two periods of two weeks each, with the order of treatments among different aMCI subjects being counterbalanced (see FIG. 7). Age-matched control subjects that are treated with placebo serve as a further control. Cognitive testing and fMRI imaging data are obtained from the subjects after each two week period of drug/placebo treatment. As described above, the drug treatment period is the two weeks preceding Visit 1 or 2 (with the two week period preceding the other Visit being the placebo phase). […] Imaging data are obtained through high-resolution methods developed in the Stark laboratory. Data are collected on a Phillips 3 Tesla scanner (Eindhoven, The Netherlands) equipped with an 8-channel SENSE (Sensitivity Encoding) head coil, located at the F.M. Kirby Research Center for Functional Brain Imaging at the Kennedy Krieger Institute (Baltimore, Md.). […] Group data are analyzed using a two-way Analysis of Variance (ANOVA) with trial types and group as fixed factors, and subject as a random factor nested within group. […]

CC[C@@H](C(N)=O)N1CCCC1=O [levetiracetam, (2S)-2-(2-oxopyrrolidin-1-yl) butanamide]
concentration at 2 weeks ([1]; 62.5 mg BID cohort (125 mg/day), SEM±0.288, read-out: mean levetiracetam blood plasma level): 2880 ng/mL | concentration at 2 weeks ([1]; 125 mg BID cohort (250 mg/day), SEM±0.53, read-out: mean levetiracetam blood plasma level): 4400 ng/mL | concentration at 2 weeks ([1]; 250 mg BID cohort (500 mg/day), SEM±0.92, read-out: mean levetiracetam blood plasma level): 7900 ng/mL | concentration at 28 days ([2]; 20 mg/kg daily dose, extrapolated from 10 and 60 mg/kg, read-out: estimated levetiracetam blood level): 7600 ng/mL | concentration at 28 days ([2]; other: osmotic minipumps, 10 mg/kg/day, 28 days, SEM±0.255, read-out: mean levetiracetam blood plasma level): 3800 ng/mL | concentration at 28 days ([2]; other: osmotic minipumps, 20 mg/kg daily dose, extrapolated from 10 and 60 mg/kg, read-out: estimated levetiracetam blood level): 7600 ng/mL | performance in the explicit 3-alternative forced choice task ([3]; 62.5 mg BID for two weeks vs placebo, p=0.041): further improved performance in cognitive tests; also recorded: improves significantly | performance in the explicit 3-alternative forced choice task ([3]; 125 mg twice a day for two weeks vs placebo, p=0.039): improves significantly | performance in the explicit 3-alternative forced choice task ([3]; 250 mg BID for two weeks vs placebo, p=0.2396): does not significantly improve | EC activity during memory judgments (fMRI) [4]: normalizes activity

Source: US10154988B2, “Methods and compositions for treating schizophrenia” (The Johns Hopkins University, priority 2012, dated 2018)
